Data from US9801960B2, “Probe for a biological specimen and labelling method and screening method using the probe” (CANON KABUSHIKI KAISHA, priority 2008, dated 2017).

How the values were obtained:
Zebrafish juveniles = experiment: In vivo labelling of Zebrafish juveniles with probe for biological specimen; parameters: key to Staining property: +++: stained; −: no stained; key to Fluorescence sensitivity: +++: strongly observed; ++: moderately observed; +: weakly observed; −: no stained; details: 1 hour; for Site(s) to be labelled: 10 ng/mL in water, stereoscopic microscope; for Fluorescence sensitivity / Staining property: 10 ng/mL; for Fluorescence sensitivity: fluorescence intensity visually evaluated; for Staining property: visually evaluated
Protocol: Five juveniles of Zebrafish were put into one well of a well plate together with rearing water. After rearing water had been discharged, 1 mL of distilled water was added to the well, and a solution of a staining compound (1) in DMSO was further added thereto so as to achieve a concentration of 10 ng/mL, followed by gentle stirring (pipetting). Further, Egg Water was prepared by dissolving artificial seawater SEALIFE (manufactured by Marinetech Co., Ltd.) in distilled water at a concentration of 60 mg/L. After the whole had been left to stand for 1 hour, distilled water in the well was discharged and replaced by 1 mL of fresh Egg Water. In addition, such an operation that Egg Water was discharged and replaced by 1 mL of fresh Egg Water was repeated twice. One of the juveniles was taken out from the well onto a dish, supplemented with 100 μL of a 3% methylcellulose aqueous solution to fix the movement of the juvenile, and photographed with a stereoscopic microscope (MZ10F: manufactured by Leica Microsystems K.K.).
The same operation as that in Example 1 was performed except that the staining compound (1) used in Example 1 was changed to any one of the staining compounds described in Table 1.
The same operation as that in Example 1 was performed except that the staining compound (1) used in Example 1 was changed to any one of indocyanine green (ICG) and fluorescein.
The staining property of each of the staining compounds of Labelled Examples 1 to 78 and Labelled Comparative Examples 1 and 2 was visually evaluated (+++: stained and −: no stained).
The fluorescence intensity of each of the staining compounds of Labelled Examples 1 to 78 and Labelled Comparative Examples 1 and 2 was visually evaluated (+++: strongly observed, ++: moderately observed, +: weakly observed, and −: no stained).

[1] = Excitation and fluorescence emission wavelength measurement; type: physicochemical; parameters: Stokes shift (λem − λex): unit not given here; details: aqueous solution: 10 mg/mL solution in DMSO diluted 500-fold with purified water
Protocol: It should be noted that the excitation wavelength and the fluorescence emission wavelength of the staining compound were determined by measuring an aqueous solution, which had been obtained by diluting 500-fold a 10 mg/mL solution of the staining compound in DMSO with purified water, with a fluorescence spectrophotometer FL 4500 manufactured by Hitachi High-Technologies Corporation.

[2] = Storage stability of staining compound solution in DMSO; type: physicochemical; details: 10 ng/mL in DMSO, closed glass container, normal temperature, 1 month; rate of change of absorbance and fluorescence intensity
Protocol: A 10 ng/mL solution of each of the staining compounds of Labelled Examples 1 to 78 and Labelled Comparative Examples 1 and 2 in DMSO was prepared, charged into a well-closed container made of glass, and left to stand still at normal temperature for 1 month. The absorbance and the fluorescence intensity at the time of the start of a storage stability test were measured at a given wavelength, and their rates of change were examined (+++: rates of change of the absorbance and the fluorescence intensity are less than 5%, and thus, the storage stability is highly excellent; ++: rates of change of the absorbance and fluorescence intensity are 5 to 15%, and thus, the storage stability is excellent; and −: rates of change of the absorbance and fluorescence intensity are more than 15%, and thus, the storage stability is poor).

Row | Structure (SMILES) | Excitation wavelength λex [1] [nm] | Fluorescence emission wavelength λem [1] [nm] | Stokes shift (λem − λex) [1] | Site(s) to be labelled (Zebrafish juveniles) | Fluorescence sensitivity (Zebrafish juveniles) | Staining property (Zebrafish juveniles) | Storage stability [2]
1 | COc1cc(/C=C2\C(=O)ON=C2c2ccccc2)cc2c1N(c1ccccc1)C1CCCC21 (stereo not shown) [Dye 34] | 570 | 657 | 87 | nose | +++ | +++ | +++ (rates of change of the absorbance and the fluorescence intensity are less than 5%, and thus, the storage stability is highly excellent)
2 | CC1(C)C(/C=C/c2ccc3c(c2)C2CCCC2N3c2ccc(C=C(c3ccccc3)c3ccccc3)cc2)=[N+](CCC(=O)O)c2ccccc21 (stereo not shown) [Dye 35] | 611 | 720 | 109 | nose | +++ | +++ | ++ (rates of change of the absorbance and fluorescence intensity are 5 to 15%, and thus, the storage stability is excellent)
3 | COc1ccc(N2c3ccc(/C=C4/SC(=S)N(CC(=O)O)C4=O)cc3C3CCCC32)cc1 (stereo not shown) [Dye 37] | 571 | 648 | 77 | gallbladder | +++ | +++ | ++ (rates of change of the absorbance and fluorescence intensity are 5 to 15%, and thus, the storage stability is excellent)
4 | CCN1C(=O)/C(=c2\s/c(=C/c3ccc4c(c3)C3CCCC3N4c3ccc(OC)cc3)c(=O)n2CC(=O)O)SC1=S (stereo not shown) [Dye 38] | 582 | 679 | 97 | gastrointestinal tract | +++ | +++ | +++ (rates of change of the absorbance and the fluorescence intensity are less than 5%, and thus, the storage stability is highly excellent)
5 | CCN1C(=O)/C(=c2\s/c(=C/c3ccc4c(c3)C3CCCC3N4Cc3ccccc3)c(=O)n2CC(=O)O)SC1=S (stereo not shown) [Dye 40] | 576 | 657 | 81 | blood vessel, liver, and gastrointestinal tract | +++ | +++ | +++ (rates of change of the absorbance and the fluorescence intensity are less than 5%, and thus, the storage stability is highly excellent)
6 | O=C(O)C1=NN(c2ccccc2)C(=O)/C1=C\c1cc(Br)c2c(c1)C1CCCC1N2c1ccc(Br)cc1 (stereo not shown) [Dye 42] | 563 | 618 | 55 | skin surface, liver, and gastrointestinal tract | +++ | +++ | ++ (rates of change of the absorbance and fluorescence intensity are 5 to 15%, and thus, the storage stability is excellent)
7 | COc1ccc2cc(N3c4ccc(/C=C5\C(=O)N(c6ccc(C(=O)O)cc6)N=C5C)cc4C4CCCC43)ccc2c1 (stereo not shown) [Dye 43] | 569 | 649 | 80 |  | +++ | +++ | +++ (rates of change of the absorbance and the fluorescence intensity are less than 5%, and thus, the storage stability is highly excellent)
8 | CC1=NN(c2ccc(C(=O)O)cc2)C(=O)/C1=C\c1ccc2c(c1)C1CCCC1N2Cc1ccccc1 (stereo not shown) [Dye 44] | 510 | 558 | 48 | liver and gastrointestinal tract | +++ | +++ | ++ (rates of change of the absorbance and fluorescence intensity are 5 to 15%, and thus, the storage stability is excellent)
9 | COc1ccc2cc(N3c4ccc(/C=C/c5sc6ccccc6[n+]5CC(=O)O)cc4C4CCCC43)ccc2c1 (stereo not shown) [Dye 45] | 401 | 516 | 115 | nose | +++ | +++ | +++ (rates of change of the absorbance and the fluorescence intensity are less than 5%, and thus, the storage stability is highly excellent)
10 | O=C(O)C1=NN(c2ccccc2)C(=O)/C1=C\c1ccc2c(c1)C1CCCC1N2c1ccc(Cc2ccccc2)cc1 (stereo not shown) [Dye 50] | 481 | 586 | 105 |  | +++ | +++ | ++ (rates of change of the absorbance and fluorescence intensity are 5 to 15%, and thus, the storage stability is excellent)

The next lines start with results.

Row | Excitation wavelength λex [1] [nm] | Fluorescence emission wavelength λem [1] [nm] | Stokes shift (λem − λex) [1] | Structure (SMILES) | Site(s) to be labelled (Zebrafish juveniles) | Fluorescence sensitivity (Zebrafish juveniles) | Staining property (Zebrafish juveniles) | Storage stability [2]
11 | 582 | 670 | 88 | O=C(O)C1=NN(c2ccccc2)C(=O)/C1=C\c1ccc2c(c1)C1CCCC1N2c1ccc(C=C(c2ccccc2)c2ccccc2)cc1 (stereo not shown) [Dye 51] | gallbladder and gastrointestinal tract | + | +++ | ++ (rates of change of the absorbance and fluorescence intensity are 5 to 15%, and thus, the storage stability is excellent)
12 | 610 | 633 | 23 | COc1ccc(N2c3ccc(/C=C4\C(=O)N(c5ccc(C(=O)O)cc5)N=C4C)cc3C3CCCC32)cc1 (stereo not shown) [Dye 54] | gastrointestinal tract and nose | ++ | +++ | +++ (rates of change of the absorbance and the fluorescence intensity are less than 5%, and thus, the storage stability is highly excellent)
13 | 437 | 585 | 148 | COc1ccc(N2c3ccc(/C=C(\C#N)C(=O)O)cc3C3CCCC32)cc1 (stereo not shown) [Dye 56] | liver, gallbladder, and gastrointestinal tract | +++ | +++ | +++ (rates of change of the absorbance and the fluorescence intensity are less than 5%, and thus, the storage stability is highly excellent)
14 | 559 | 671 | 112 | CCN1C(=O)/C(=c2\s/c(=C/c3cc(Br)c4c(c3)C3CCCC3N4c3ccc(Br)cc3)c(=O)n2CC(=O)O)SC1=S (stereo not shown) [Dye 59] | blood vessel, nose, and gastrointestinal tract | +++ | +++ | +++ (rates of change of the absorbance and the fluorescence intensity are less than 5%, and thus, the storage stability is highly excellent)
15 | 563 | 609 | 46 | CCCCN1C(=O)/C(=c2\s/c(=C/c3ccc4c(c3)C3CCCC3N4c3ccccc3)c(=O)n2CC(=O)OCC)SC1=S (stereo not shown) [Dye 60] | gastrointestinal tract | ++ | +++ | +++ (rates of change of the absorbance and the fluorescence intensity are less than 5%, and thus, the storage stability is highly excellent)
